Tested on: Pyrenophora teres
Assay: In vivo test on Pyrenophora teres (barley net blotch)
Conditions: dose of 110 ppm; barley plants (Express variety), preventive spray 24 hours before contamination; grading 12 days after contamination
Protocol: The active ingredients tested are prepared by homogenization in a mixture of acetone/tween/DMSO, then diluted with water to obtain the desired active material concentration.
Barley plants (Express variety), sown on a 50/50 peat soil-pozzolana substrate in starter cups and grown at 12° C., are treated at the 1-leaf stage (10 cm tall) by spraying with the active ingredient prepared as described above. Plants, used as controls, are treated with the mixture of acetone/tween/DMSO/water not containing the active material.
After 24 hours, the plants are contaminated by spraying them with an aqueous suspension of Pyrenophora teres spores (12,000 spores per ml). The spores are collected from a 12-day-old culture. The contaminated barley plants are incubated for 24 hours at about 20° C. and at 100% relative humidity, and then for 12 days at 80% relative humidity.
Grading is carried out 12 days after the contamination, in comparison with the control plants.

## O=C(NCCCCc1ncc(C(F)(F)F)cc1Cl)c1ccccc1C(F)(F)F [Compound 1]
  efficacy (grading in comparison with the control plants): at least 60%

Source: patent publication US20090318290A1, “N-(4-PYRIDIN-2-YLBUTYL) BENZAMIDE DERIVATIVES AND THEIR USE AS FUNGICIDES” (BAYER CROPSCIENCE SA, priority 2006, published 2009)
